Assay results reported in publication PMC6547681 (Nature Communications, 2019).
“And” between values parts separate entries of the source, which are not always exact repeats. Equal entries are not always repeated.

Tested on: BCL-2 WT
Assay: Steady-state competition SPR against immobilised BIMBH3 peptide, BCL-2 WT
Format: binding, human
Description: SPR experiments were performed as previously described. […] The lowest concentrations used in direct binding experiments were 1 nM for BIAcore 4000 and 0.1 nM for BIAcore S200 instruments, concentrations below these were below the sensitivity thresholds for the instruments. […] Direct binding experiments were fitted to a 1:1 binding site kinetic model, fitting on and off rates, in BIAevaluation software. For competition experiments steady-state responses were determined in BIAevaluation software according to the software defaults in affinity evaluation mode averaging responses for 5 sec. […] All affinity measurements were performed in at least two independent experiments using independent protein preparations.

With O=C(c1cc(-c2cc3c(cc2C(=O)N2Cc4ccccc4C[C@H]2CN2CCOCC2)OCO3)n2c1CCCC2)N(c1ccccc1)c1ccc(O)cc1 [S55746] the “S55746 binding weaker than venetoclax” value (BCL-2 WT) was > 10 fold and 10 fold, the “Raw data values in Figure 3f (SPR response)” value (“Raw data values in Figure 3f” below) (S55746 concentration 20, BCL-2 concentration 1 nM, independent experiment 2) was 2.733 and the “Raw data values in Figure 3f” value (S55746 concentration 20, BCL-2 concentration 3 nM, independent experiment 2) was 5.054. The “Raw data values in Figure 3f” value (S55746 concentration 20, BCL-2 concentration 4 nM, independent experiment 2) was 7.385, the “Raw data values in Figure 3f” value (S55746 concentration 20, BCL-2 concentration 6 nM, independent experiment 2) was 10.4479 and the “Raw data values in Figure 3f” value (S55746 concentration 20, BCL-2 concentration 8 nM, independent experiment 2) was 13.83. The “Raw data values in Figure 3f” value (S55746 concentration 20, BCL-2 concentration 9 nM, independent experiment 2) was 18.2167, the “Raw data values in Figure 3f” value (S55746 concentration 20, BCL-2 concentration 10 nM, independent experiment 1) was 14.9942 and the “Raw data values in Figure 3f” value (S55746 concentration 20, BCL-2 concentration 10 nM, independent experiment 3) was 5.545. For the same compound, the “Raw data values in Figure 3f” value (S55746 concentration 20, BCL-2 concentration 11 nM, independent experiment 2) was 22.9055, the “Raw data values in Figure 3f” value (S55746 concentration 20, BCL-2 concentration 12 nM, independent experiment 2) was 29.6258 and the “Raw data values in Figure 3f” value (S55746 concentration 20, BCL-2 concentration 16 nM, independent experiment 2) was 52.2757. The “Raw data values in Figure 3f” value (S55746 concentration 20, BCL-2 concentration 20 nM, independent experiment 1) was 62.0337, the “Raw data values in Figure 3f” value (S55746 concentration 20, BCL-2 concentration 20 nM, independent experiment 3) was 30.5673 and the “Raw data values in Figure 3f” value (S55746 concentration 20, BCL-2 concentration 24 nM, independent experiment 2) was 194.711. The “Raw data values in Figure 3f” value (S55746 concentration 20, BCL-2 concentration 30 nM, independent experiment 1) was 78.5463, the “Raw data values in Figure 3f” value (S55746 concentration 20, BCL-2 concentration 30 nM, independent experiment 3) was 46.9544 and the “Raw data values in Figure 3f” value (S55746 concentration 20, BCL-2 concentration 40 nM, independent experiment 1) was 84.3215. For the same compound, the “Raw data values in Figure 3f” value (S55746 concentration 20, BCL-2 concentration 40 nM, independent experiment 2) was 278.992, the “Raw data values in Figure 3f” value (S55746 concentration 20, BCL-2 concentration 40 nM, independent experiment 3) was 55.2753 and the “Raw data values in Figure 3f” value (S55746 concentration 20, BCL-2 concentration 50 nM, independent experiment 1) was 87.889. For the same compound, the “Raw data values in Figure 3f” value (S55746 concentration 20, BCL-2 concentration 50 nM, independent experiment 3) was 61.4638, the “Raw data values in Figure 3f” value (S55746 concentration 20, BCL-2 concentration 60 nM, independent experiment 1) was 89.8444 and the “Raw data values in Figure 3f” value (S55746 concentration 20, BCL-2 concentration 60 nM, independent experiment 3) was 66.5259. The “Raw data values in Figure 3f” value (S55746 concentration 20, BCL-2 concentration 70 nM, independent experiment 1) was 91.3513, the “Raw data values in Figure 3f” value (S55746 concentration 20, BCL-2 concentration 70 nM, independent experiment 3) was 70.0896 and the “Raw data values in Figure 3f” value (S55746 concentration 20, BCL-2 concentration 80 nM, independent experiment 1) was 91.9809. For the same compound, the “Raw data values in Figure 3f” value (S55746 concentration 20, BCL-2 concentration 80 nM, independent experiment 3) was 71.977, the “Raw data values in Figure 3f” value (S55746 concentration 20, BCL-2 concentration 100 nM, independent experiment 1) was 93.8895 and the “Raw data values in Figure 3f” value (S55746 concentration 20, BCL-2 concentration 100 nM, independent experiment 3) was 77.7314. For the same compound, the “Raw data values in Figure 3f” value (S55746 concentration 20, BCL-2 concentration 150 nM, independent experiment 1) was 96.8618, the “Raw data values in Figure 3f” value (S55746 concentration 20, BCL-2 concentration 150 nM, independent experiment 3) was 85.769 and the “Raw data values in Figure 3f” value (S55746 concentration 20, BCL-2 concentration 200 nM, independent experiment 1) was 97.7551. For the same compound, the “Raw data values in Figure 3f” value (S55746 concentration 20, BCL-2 concentration 200 nM, independent experiment 3) was 90.6286, the “Raw data values in Figure 3f” value (S55746 concentration 40, BCL-2 concentration 1 nM, independent experiment 2) was 1.748 and the “Raw data values in Figure 3f” value (S55746 concentration 40, BCL-2 concentration 3 nM, independent experiment 2) was 3.274. The “Raw data values in Figure 3f” value (S55746 concentration 40, BCL-2 concentration 4 nM, independent experiment 2) was 4.7441, the “Raw data values in Figure 3f” value (S55746 concentration 40, BCL-2 concentration 6 nM, independent experiment 2) was 5.884 and the “Raw data values in Figure 3f” value (S55746 concentration 40, BCL-2 concentration 8 nM, independent experiment 2) was 7.971. The “Raw data values in Figure 3f” value (S55746 concentration 40, BCL-2 concentration 9 nM, independent experiment 2) was 9.582, the “Raw data values in Figure 3f” value (S55746 concentration 40, BCL-2 concentration 10 nM, independent experiment 1) was 5.808 and the “Raw data values in Figure 3f” value (S55746 concentration 40, BCL-2 concentration 10 nM, independent experiment 3) was 2.581. For the same compound, the “Raw data values in Figure 3f” value (S55746 concentration 40, BCL-2 concentration 11 nM, independent experiment 2) was 11.5501, the “Raw data values in Figure 3f” value (S55746 concentration 40, BCL-2 concentration 12 nM, independent experiment 2) was 13.3285 and the “Raw data values in Figure 3f” value (S55746 concentration 40, BCL-2 concentration 16 nM, independent experiment 2) was 18.1319. For the same compound, the “Raw data values in Figure 3f” value (S55746 concentration 40, BCL-2 concentration 20 nM, independent experiment 1) was 14.077, the “Raw data values in Figure 3f” value (S55746 concentration 40, BCL-2 concentration 20 nM, independent experiment 3) was 5.653 and the “Raw data values in Figure 3f” value (S55746 concentration 40, BCL-2 concentration 24 nM, independent experiment 2) was 35.953. The “Raw data values in Figure 3f” value (S55746 concentration 40, BCL-2 concentration 30 nM, independent experiment 1) was 36.4319, the “Raw data values in Figure 3f” value (S55746 concentration 40, BCL-2 concentration 30 nM, independent experiment 3) was 15.4804 and the “Raw data values in Figure 3f” value (S55746 concentration 40, BCL-2 concentration 40 nM, independent experiment 1) was 75.4873.
